Measurements reported in USRE46943E1, “Radioprotector compounds and methods” (PETER MACCALLUM CANCER INSTITUTE, priority 2010, dated 2018).

Tested on: transformed human keratinocyte cell line (FEP 1811)
Assay: Clonogenic survival cell culture assay for cytotoxicity
Type: cell-based
Settings: Homo sapiens, Keratinocyte, light or radiation study; un-irradiated keratinocytes, one hour drug exposure, colonies counted after eight days; read-out: C50 (concentration of radioprotector that results in 50% clonogenic survival)
How it was run: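 Mid-log monolayers exposed to test drug for 1 h, then pronase-dispersed and plated; colonies counted after 8 days. For […], irradiation at 0.6 Gy per minute began 30 min after drug addition, with total drug exposure held at 60 min before plating for clonogenic survival.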

| Compound | IC50 [µM] |
| --- | --- |
| CN1CCN(c2ccc3nc(-c4ccc5nc(-c6ccccn6)[nH]c5c4)[nH]c3c2)CC1 [Example 2, 2-(5′-(5″-(4′″-Methylpiperazin-1′″-yl)benzimidazol-2″-yl)benzimidazol-2′-yl)pyridine] | 101 |
| Cc1ccc(-c2nc3ccc(-c4nc5ccc(N6CCN(C)CC6)cc5[nH]4)cc3[nH]2)nc1 [Example 6, 5-Methyl-2-(5′-(5″-(4′″-methylpiperazin-1′″-yl)benzimidazol-2″-yl)benzimidazol-2′-yl)pyridine] | 58.4 |
| c1ccc(-c2nc3ccc(-c4nc5ccc(N6CCOCC6)cc5[nH]4)cc3[nH]2)nc1 [Example 19, 2-(5′-(5″-Morpholinobenzimidazol-2″-yl)benzimidazol-2′-yl)pyridine] | 150 |
| OC1CCN(c2ccc3nc(-c4ccc5nc(-c6cc7ccccc7cn6)[nH]c5c4)[nH]c3c2)CC1 [Example 23, 3-(5′-(5″-(4′″-Hydroxypiperidin-1′″-yl)benzimidazol-2″-yl)benzimidazol-2′-yl)isoquinoline] | 589 |
